Laboratory results reported in paper PMC5218480 (PLoS ONE, 2017).

Tested on: MV-4-11 cells
Assay: Gene expression microarray analysis (Affymetrix PrimeView) and GSEA
Type: cell-based, human
Design: RFU PODN (11730768_x_at) / Fold change /veh PODN (11730768_x_at) / RFU LINC00158 (11744669_a_at) / Fold change /veh LINC00158 (11744669_a_at) / RFU DUSP10 (11751237_a_at) / Fold change /veh DUSP10 (11751237_a_at) / RFU ID3 (11757404_x_at) / Fold change /veh ID3 (11757404_x_at) / RFU PLEKHG5 (11737974_s_at) / Fold change /veh PLEKHG5 (11737974_s_at) / RFU LRRC4B (11730491_at) / Fold change /veh LRRC4B (11730491_at) / RFU GIMAP4 (11747438_a_at) / Fold change /veh GIMAP4 (11747438_a_at) / RFU KRT8 (11758183_x_at) / Fold change /veh KRT8 (11758183_x_at) / RFU CNN1 (11734310_a_at) / Fold change /veh CNN1 (11734310_a_at) / RFU VPS37D (11726825_at) / Fold change /veh VPS37D (11726825_at) / RFU C10orf10 (11716522_x_at) / Fold change /veh C10orf10 (11716522_x_at) / RFU KIR2DL2 /// KIR2DL4 /// KIR2DL5A /// KIR2DL5B /// KIR2DS1 /// KIR2DS2 /// KIR2DS3 /// KIR2DS4 /// KIR3DL3 /// KIR3DL3 /// KIR3DS1 (11738374_at) / Fold change /veh KIR2DL2 /// KIR2DL4 /// KIR2DL5A /// KIR2DL5B /// KIR2DS1 /// KIR2DS2 /// KIR2DS3 /// KIR2DS4 /// KIR3DL3 /// KIR3DL3 /// KIR3DS1 (11738374_at) / RFU C1QL1 (11718748_at) / Fold change /veh C1QL1 (11718748_at) / RFU TMPRSS4 (11747572_a_at) / Fold change /veh TMPRSS4 (11747572_a_at) / RFU HAMP (11756126_x_at) / Fold change /veh HAMP (11756126_x_at) / RFU RNFT2 (11725882_a_at) / Fold change /veh RNFT2 (11725882_a_at) / RFU NR4A2 (11747474_a_at) / Fold change /veh NR4A2 (11747474_a_at) / RFU ABCC12 (11746883_a_at) / Fold change /veh ABCC12 (11746883_a_at) / RFU TMEM136 (11760407_x_at) / Fold change /veh TMEM136 (11760407_x_at) / RFU CLDN22 /// WWC2 (11732394_at) / Fold change /veh CLDN22 /// WWC2 (11732394_at) / RFU HLA-DPB1 (11760878_x_at) / Fold change /veh HLA-DPB1 (11760878_x_at) / RFU SPINT1 (11716480_a_at) / Fold change /veh SPINT1 (11716480_a_at) / RFU GAP43 (11754022_s_at) / Fold change /veh GAP43 (11754022_s_at) / RFU A4GNT (11735810_at) / Fold change /veh A4GNT (11735810_at) / RFU PRB3 (11715151_x_at) / Fold change /veh PRB3 (11715151_x_at) / RFU TUBB4B (11761932_at) / Fold change /veh TUBB4B (11761932_at) / RFU CAPN14 (11732068_a_at) / Fold change /veh CAPN14 (11732068_a_at) / RFU TMCC2 (11721928_a_at) / Fold change /veh TMCC2 (11721928_a_at) / RFU IRGQ (11745062_a_at) / Fold change /veh IRGQ (11745062_a_at) / RFU FAM174B (11720279_a_at) / Fold change /veh FAM174B (11720279_a_at) / RFU TMPRSS4 (11748680_a_at) / Fold change /veh TMPRSS4 (11748680_a_at) / RFU FAM212B (11763350_a_at) / Fold change /veh FAM212B (11763350_a_at) / RFU PLEKHG5 (11743358_a_at) / Fold change /veh PLEKHG5 (11743358_a_at) / RFU ZSCAN30 (11745921_a_at) / Fold change /veh ZSCAN30 (11745921_a_at) / RFU CMKLR1 (11741424_a_at) / Fold change /veh CMKLR1 (11741424_a_at) / RFU LOC101060620 /// MAPK8IP1 (11723275_at) / Fold change /veh LOC101060620 /// MAPK8IP1 (11723275_at) / RFU SPTSSB (11747773_x_at) / Fold change /veh SPTSSB (11747773_x_at) / RFU PRSS12 (11739890_at) / Fold change /veh PRSS12 (11739890_at) / RFU BIN1 (11741810_x_at) / Fold change /veh BIN1 (11741810_x_at) / RFU WNT11 (11732464_a_at) / Fold change /veh WNT11 (11732464_a_at) / RFU C10orf10 (11716521_a_at) / Fold change /veh C10orf10 (11716521_a_at) / RFU C5orf56 (11738089_at) / Fold change /veh C5orf56 (11738089_at) / RFU CYB561 (11721691_x_at) / Fold change /veh CYB561 (11721691_x_at) / RFU ANKRD19P (11752326_a_at) / Fold change /veh ANKRD19P (11752326_a_at) / RFU OR2T12 /// OR2T33 /// OR2T8 (11738714_s_at) / Fold change /veh OR2T12 /// OR2T33 /// OR2T8 (11738714_s_at) / RFU VCAN (11748164_a_at) / Fold change /veh VCAN (11748164_a_at) / RFU JSRP1 (11732532_at) / Fold change /veh JSRP1 (11732532_at) / RFU KRTAP10-11 (11738290_x_at) / Fold change /veh KRTAP10-11 (11738290_x_at) / RFU MYO3A (11730013_a_at) / Fold change /veh MYO3A (11730013_a_at) / RFU EBF3 (11725865_a_at) / Fold change /veh EBF3 (11725865_a_at) / RFU CAMK2N1 (11719241_x_at) / Fold change /veh CAMK2N1 (11719241_x_at) / RFU C5orf56 (11738088_a_at) / Fold change /veh C5orf56 (11738088_a_at) / RFU OLFML3 (11715873_a_at) / Fold change /veh OLFML3 (11715873_a_at) / RFU LOC100653217 /// NTM (11731650_a_at) / Fold change /veh LOC100653217 /// NTM (11731650_a_at) / RFU MAPK11 (11762145_a_at) / Fold change /veh MAPK11 (11762145_a_at) / RFU FIZ1 (11724087_x_at) / Fold change /veh FIZ1 (11724087_x_at) / RFU OASL (11726364_x_at) / Fold change /veh OASL (11726364_x_at) / RFU SOX15 (11748057_x_at) / Fold change /veh SOX15 (11748057_x_at) / RFU CD79A (11719716_a_at) / Fold change /veh CD79A (11719716_a_at) / RFU HIST1H1D (11736915_at) / Fold change /veh HIST1H1D (11736915_at) / RFU CASKIN2 (11723855_a_at) / Fold change /veh CASKIN2 (11723855_a_at) / RFU LOC730098 (11760151_x_at) / Fold change /veh LOC730098 (11760151_x_at) / RFU OR4N2 (11742367_at) / Fold change /veh OR4N2 (11742367_at) / RFU PRRT2 (11749266_a_at) / Fold change /veh PRRT2 (11749266_a_at) / RFU SNX32 (11753110_a_at) / Fold change /veh SNX32 (11753110_a_at) / RFU CDHR5 (11726645_a_at) / Fold change /veh CDHR5 (11726645_a_at) / RFU RCAN1 (11760418_a_at) / Fold change /veh RCAN1 (11760418_a_at) / RFU FAM167A (11723789_a_at) / Fold change /veh FAM167A (11723789_a_at) / RFU FAM26E (11764081_at) / Fold change /veh FAM26E (11764081_at) / RFU ISYNA1 (11749810_s_at) / Fold change /veh ISYNA1 (11749810_s_at) / RFU ACY1 (11761880_at) / Fold change /veh ACY1 (11761880_at) / RFU 11764098_at / Fold change /veh 11764098_at / RFU SAMD14 (11745864_x_at) / Fold change /veh SAMD14 (11745864_x_at) / RFU NPB (11741838_a_at) / Fold change /veh NPB (11741838_a_at) / RFU TMPRSS6 (11731388_a_at) / Fold change /veh TMPRSS6 (11731388_a_at) / RFU KRTAP10-2 (11738614_at) / Fold change /veh KRTAP10-2 (11738614_at) / RFU ARHGAP8 /// PRR5-ARHGAP8 (11727945_x_at) / Fold change /veh ARHGAP8 /// PRR5-ARHGAP8 (11727945_x_at) / RFU KRTAP5-7 /// NADSYN1 (11734609_at) / Fold change /veh KRTAP5-7 /// NADSYN1 (11734609_at) / RFU RASL12 (11751679_a_at) / Fold change /veh RASL12 (11751679_a_at) / RFU CDKN2B (11736163_a_at) / Fold change /veh CDKN2B (11736163_a_at) / RFU PRF1 (11729649_at) / Fold change /veh PRF1 (11729649_at) / RFU, ZNF638 /// ZNF638-IT1 / Fold change vs veh, ZNF638 /// ZNF638-IT1 / RFU, PANK3 / Fold change vs veh, PANK3 / RFU, SH3YL1 / Fold change vs veh, SH3YL1 / RFU, ZEB2 / Fold change vs veh, ZEB2 / RFU, NRIP1 / Fold change vs veh, NRIP1 / RFU, PTTG1IP / Fold change vs veh, PTTG1IP / RFU, CAPN2 / Fold change vs veh, CAPN2 / RFU, MED14 / Fold change vs veh, MED14 / RFU, SNORA58 / Fold change vs veh, SNORA58 / RFU, C1orf63 / Fold change vs veh, C1orf63 / RFU, LRRFIP1 / Fold change vs veh, LRRFIP1 / RFU, NDUFAF7 / Fold change vs veh, NDUFAF7 / RFU, SLC12A2 / Fold change vs veh, SLC12A2 / RFU, IBTK / Fold change vs veh, IBTK / RFU, ESF1 / Fold change vs veh, ESF1 / Fold change vs veh, TMEM50B / RFU, TAOK1 / Fold change vs veh, TAOK1 / RFU, ACBD3 / Fold change vs veh, ACBD3 / RFU, TMA16 / Fold change vs veh, TMA16 / RFU, RWDD3 / Fold change vs veh, RWDD3 / RFU, BCAT1 / Fold change vs veh, BCAT1 / RFU, EDEM3 / Fold change vs veh, EDEM3 / RFU, TMEM33 / Fold change vs veh, TMEM33 / RFU, WDR75 / Fold change vs veh, WDR75 / RFU, AHCTF1 / Fold change vs veh, AHCTF1 / RFU, TFRC / Fold change vs veh, TFRC / RFU, ZDHHC17 / Fold change vs veh, ZDHHC17 / RFU, NOM1 / Fold change vs veh, NOM1 / RFU, ARL8B / Fold change vs veh, ARL8B / RFU, ZBTB11 / Fold change vs veh, ZBTB11 / RFU, TAMM41 / Fold change vs veh, TAMM41 / RFU, KIAA1704 /// LOC100996395 / Fold change vs veh, KIAA1704 /// LOC100996395 / RFU, ING1 / Fold change vs veh, ING1 / RFU, TRMT61B / Fold change vs veh, TRMT61B / RFU, FUBP3 / Fold change vs veh, FUBP3 / RFU, TP53 / Fold change vs veh, TP53 / RFU, TNKS2 / Fold change vs veh, TNKS2 / RFU, ZFP14 / Fold change vs veh, ZFP14 / RFU, ACTR2 / Fold change vs veh, ACTR2 / RFU, PPP3R1 / Fold change vs veh, PPP3R1 / RFU, PIK3R1 / Fold change vs veh, PIK3R1 / RFU, HNRNPA1 / Fold change vs veh, HNRNPA1 / RFU, RNF170 / Fold change vs veh, RNF170 / RFU, ZNF28 / Fold change vs veh, ZNF28 / RFU, RNGTT / Fold change vs veh, RNGTT / RFU, OGT / Fold change vs veh, OGT / RFU, BRD1 / Fold change vs veh, BRD1 / RFU, MARS / Fold change vs veh, MARS / RFU, ZNF655 / Fold change vs veh, ZNF655 / RFU, FAHD1 / Fold change vs veh, FAHD1 / RFU, BDP1 / Fold change vs veh, BDP1 / RFU, LRRCC1 / Fold change vs veh, LRRCC1 / RFU, ARID1A / Fold change vs veh, ARID1A / RFU, ZNF146 / Fold change vs veh, ZNF146 / RFU, ZNF330 / Fold change vs veh, ZNF330 / RFU, GPN3 / Fold change vs veh, GPN3 / RFU, C9orf123 / Fold change vs veh, C9orf123 / RFU, N4BP2L2 / Fold change vs veh, N4BP2L2 / RFU, ARFIP1 / Fold change vs veh, ARFIP1 / RFU, FAM179B / Fold change vs veh, FAM179B / RFU, BCL10 / Fold change vs veh, BCL10 / RFU, UHRF1BP1L / Fold change vs veh, UHRF1BP1L / RFU, BET1 / Fold change vs veh, BET1 / RFU, CNOT2 / Fold change vs veh, CNOT2 / RFU, ZNF268 / Fold change vs veh, ZNF268 / Fold change vs veh, ZNF507 / RFU, DGCR2 / Fold change vs veh, DGCR2 / RFU, WDSUB1 / Fold change vs veh, WDSUB1 / Fold change vs veh, HSP90B1 /// MIR3652 / RFU, ADSS / Fold change vs veh, ADSS / RFU, GK / Fold change vs veh, GK / RFU, ZNF148 / Fold change vs veh, ZNF148 / RFU, TAF9 / Fold change vs veh, TAF9 / RFU, SLC1A5 / Fold change vs veh, SLC1A5 / RFU, SLMO2 / Fold change vs veh, SLMO2 / RFU, ABCC4 / Fold change vs veh, ABCC4 / RFU, LOC101060439 /// RAP1B / Fold change vs veh, LOC101060439 /// RAP1B / RFU, RFX7 / Fold change vs veh, RFX7 / RFU, GTPBP10 / Fold change vs veh, GTPBP10 / RFU, CNEP1R1 / Fold change vs veh, CNEP1R1 / RFU, BIVM-ERCC5 /// ERCC5 / Fold change vs veh, BIVM-ERCC5 /// ERCC5 / RFU, ILF3 / Fold change vs veh, ILF3 / RFU 11762660_at / Fold change /veh 11762660_at / RFU VCAN (11757783_s_at) / Fold change /veh VCAN (11757783_s_at) / RFU DDX43 (11728927_at) / Fold change /veh DDX43 (11728927_at) / RFU KRT8 (11758188_x_at) / Fold change /veh KRT8 (11758188_x_at) / RFU NKD1 (11759106_at) / Fold change /veh NKD1 (11759106_at) / RFU SRD5A1 (11742802_a_at) / Fold change /veh SRD5A1 (11742802_a_at) / RFU TPSAB1 /// TPSB2 (11721975_s_at) / Fold change /veh TPSAB1 /// TPSB2 (11721975_s_at) / RFU GSTM3 (11746129_a_at) / Fold change /veh GSTM3 (11746129_a_at) / RFU IL23R (11737362_x_at) / Fold change /veh IL23R (11737362_x_at) / RFU TMEM51 (11727254_a_at) / Fold change /veh TMEM51 (11727254_a_at) / RFU PIWIL2 (11732686_x_at) / Fold change /veh PIWIL2 (11732686_x_at) / RFU ORM1 (11744905_x_at) / Fold change /veh ORM1 (11744905_x_at) / RFU CCDC152 (11743942_at) / Fold change /veh CCDC152 (11743942_at) / RFU ECM1 (11717891_a_at) / Fold change /veh ECM1 (11717891_a_at) / RFU IL23R (11748794_a_at) / Fold change /veh IL23R (11748794_a_at) / RFU TNFAIP8L3 (11732012_x_at) / Fold change /veh TNFAIP8L3 (11732012_x_at) / RFU MBOAT4 (11741988_at) / Fold change /veh MBOAT4 (11741988_at) / RFU 11764193_at / Fold change /veh 11764193_at / RFU TMEM53 (11763286_at) / Fold change /veh TMEM53 (11763286_at) / RFU MAGEB2 (11727129_at) / Fold change /veh MAGEB2 (11727129_at) / RFU TMEM200A (11744735_a_at) / Fold change /veh TMEM200A (11744735_a_at) / RFU CCDC152 (11751479_a_at) / Fold change /veh CCDC152 (11751479_a_at) / RFU FAM211A (11726209_a_at) / Fold change /veh FAM211A (11726209_a_at) / RFU RGS16 (11746705_a_at) / Fold change /veh RGS16 (11746705_a_at) / RFU VCAN (11755009_s_at) / Fold change /veh VCAN (11755009_s_at) / RFU RHOB (11743442_s_at) / Fold change /veh RHOB (11743442_s_at) / RFU RGS16 (11720943_a_at) / Fold change /veh RGS16 (11720943_a_at) / RFU RGS16 (11720944_at) / Fold change /veh RGS16 (11720944_at) / RFU, VPS4B / Fold change vs veh, VPS4B / RFU, CREB1 / Fold change vs veh, CREB1 / RFU, DNAJC13 / Fold change vs veh, DNAJC13 / RFU, GNAQ / Fold change vs veh, GNAQ / RFU, CDK5R1 / Fold change vs veh, CDK5R1 / RFU, ZRANB3 / Fold change vs veh, ZRANB3 / RFU, CUL4A / Fold change vs veh, CUL4A / RFU, CCNY / Fold change vs veh, CCNY / RFU, UFL1 / Fold change vs veh, UFL1 / RFU, COG3 / Fold change vs veh, COG3 / RFU, DIAPH2 / Fold change vs veh, DIAPH2 / RFU, SKA2 / Fold change vs veh, SKA2 / RFU, AFF3 / Fold change vs veh, AFF3 / RFU, LMF1 / Fold change vs veh, LMF1 / RFU, IPO11 / Fold change vs veh, IPO11 / RFU, DFFB / Fold change vs veh, DFFB / RFU, FOXP1 / Fold change vs veh, FOXP1 / RFU, CARD8 / Fold change vs veh, CARD8 / RFU, STRN3 / Fold change vs veh, STRN3 / RFU, ADK / Fold change vs veh, ADK / RFU, RASSF2 / Fold change vs veh, RASSF2 / RFU, WIPF1 / Fold change vs veh, WIPF1 / RFU, LARP1B / Fold change vs veh, LARP1B / RFU, RASA1 / Fold change vs veh, RASA1 / RFU, RB1 / Fold change vs veh, RB1 / RFU, PPFIA1 / Fold change vs veh, PPFIA1 / RFU, MAT2A / Fold change vs veh, MAT2A / RFU, CCT5 / Fold change vs veh, CCT5 / RFU, WDR92 / Fold change vs veh, WDR92 / RFU, CUX1 / Fold change vs veh, CUX1 / RFU, TTC7A / Fold change vs veh, TTC7A / RFU, TMEM135 / Fold change vs veh, TMEM135 / RFU, DEPTOR / Fold change vs veh, DEPTOR / RFU, CPM / Fold change vs veh, CPM / RFU, DNAJB6 / Fold change vs veh, DNAJB6 / RFU, CACNA2D3 / Fold change vs veh, CACNA2D3 / RFU, DTX4 / Fold change vs veh, DTX4 / RFU, TFCP2 / Fold change vs veh, TFCP2 / RFU, GMCL1 /// GMCL1P1 / Fold change vs veh, GMCL1 /// GMCL1P1 / RFU, AEBP2 / Fold change vs veh, AEBP2 / RFU, SNHG1 /// SNORD22 /// SNORD25 /// SNORD26 /// SNORD27 /// SNORD28 /// SNORD29 /// SNORD31 / Fold change vs veh, SNHG1 /// SNORD22 /// SNORD25 /// SNORD26 /// SNORD27 /// SNORD28 /// SNORD29 /// SNORD31 / Fold change (Aza/veh), C12orf56 (ProbeSet 11735607_a_at) / Fold change (ACY-1035/veh), C12orf56 (ProbeSet 11735607_a_at) / Fold change (Aza/veh), FGFR1OP (ProbeSet 11751329_s_at) / Fold change (ACY-1035/veh), FGFR1OP (ProbeSet 11751329_s_at) / Fold change (Aza/veh), VPS36 (ProbeSet 11739960_a_at) / Fold change (ACY-1035/veh), VPS36 (ProbeSet 11739960_a_at) / RFU SYPL1 (11715823_x_at) / Fold change /veh SYPL1 (11715823_x_at) / RFU IGFBP7 (11715501_s_at) / Fold change /veh IGFBP7 (11715501_s_at) / RFU REEP3 (11722064_at) / Fold change /veh REEP3 (11722064_at) / RFU IGLL1 (11728026_x_at) / Fold change /veh IGLL1 (11728026_x_at): dose or concentration left out as unconfirmed
Conditions: ProbeSet 11724763_s_at; LIST D

## Nc1ccc(-c2cccs2)cc1NC(=O)c1ccc2c(c1)cc(C1CC1)n2CCN1CCOCC1 [ACY-1035]
  RFU, DEPTOR: 104.61 RFU
